In US7674454B2, “Enzyme-prodrug therapy for prosthetic joint repair” (Innovata Limited, priority 2004, dated 2010):

What was measured:
[1] = test system: interface cells; experiment: Transduction and cell killing assay: CTL102 infection, then CB1954, WST metabolic activity readout; type: cell-based, human
Experimental: Cell viability was then determined using a metabolic activity assay.
For all experiments described, interface cells were used. Interface tissue was removed from the periprosthetic space during revision-surgery by an orthopedic surgeon and collected in sterile phosphate buffered saline (PBS). Connective tissue and fat were removed thoroughly and the interface tissue was digested for at least two hours at 37° C. using collagenase 1A (1 mg/ml; Sigma, St Louis, Mo., USA). Cells were then harvested by filtering the tissue/collagenase substance through a 200 μm filter (NPBI, Emmer-Compascuum, The Netherlands). The cells were cultured in 75 cm^2 flasks (Cellstar, Greiner, Alphen aan de Rijn, The Netherlands) with Iscove's modified Dulbecco's medium (IMDM; Biowitthaker, Verviers, Belgium), supplemented with glutamax (GibcoBRL, Paisley, UK), penicillin and streptomycin (Boehringer Mannheim, Germany), and 10% fetal calf serum (FCS; GibcoBRL, Paisley, UK) at 37° C. and 5% CO2.
Before each experiment interface cells were detached from the flasks using 0.25% trypsin (GibcoBRL, Paisley, UK). The cells were counted in a bürker counter and death cells were excluded by trypan blue. Cells were seeded in a 96 wells-plate (flat bottom) at a density of 5,000 cells per well. Cells were incubated overnight to allow attachment to the bottom. […]
Hereafter the absorbance at 415 nm was measured.

[2] = test system: interface cells; experiment: NTR/CB1954 cell killing in the presence of, or after transient exposure to, contrast medium; type: cell-based, human; conditions: results not shown
Excerpt: The effect of contrast medium (iotrolan) on HAdV5-transduction of interface cells was investigated with Ad.CMV.LacZ. Transducibility of the cells increases with the concentration of HAdV-5 vector. However, the contrast medium has restraining influence on the transduction efficiency. With higher concentrations of iotrolan, the HAdV-5 vector concentration has less effect on gene transfer efficiency. […] The effect of iotrolan on the transduction is statistically significant (p<0.001). Furthermore, differences between cells from different individuals (n=6) have been observed. To evaluate the effect of contrast medium on cell killing by NTR/CB1954, the previously described experiment for the efficiency of cell killing was repeated in the presence of contrast medium. […] This incompatibility may be due to the presence of iodine within the contrast media. Screening of all available contrast media may allow determination of a contrast medium compatible with viral transduction.
The influence of transient exposure to contrast medium on the transduction of interface cells was investigated. Interface cells were exposed to contrast medium for 0 to 120 minutes and the period between washing away of the contrast medium and performing the NTR/CB1954 cell killing approach was varied. […]

[3] = Djeha et al, 2001; cited from earlier work
[4] = test system: loosened hip prosthesis; experiment: Phase-1 clinical study: intra-articular vector, prodrug, then cement injection; conditions: Patient 1, twelve hours after prodrug injection
Experimental: After 48 hours, to allow transduction of target cells and expression of the nitroreductase transgene, CB1954 (at a dosage of 24 mg m^−2) is injected intra-articularly.

[5] = test system: interface cells; experiment: Effect of contrast medium on interface cells, WST-1 viability; type: cell-based, human; conditions: 4 hours exposure, 0-50% contrast medium, viability after 3 more days; p=0.563
Experimental: Interface cells were seeded in 96-wells plates. Into each well 50 μl of IMDM/20% FCS and 50 μl of a solution containing contrast medium and 0.9% NaCl in various concentrations (0, 12.5, 25, and 50% contrast medium) were added. The contrast medium used was the low-osmolarity, nonionic dimer iotrolan (Isovist; Schering, Berlin, Germany). After four hours of exposure to the contrast medium, the cells were washed twice and incubated in IMDM/10% FCS. The cells were cultured for three more days, changing the culture medium every day. On day four, cell viability was determined with the WST-1 cell viability assay kit (Roche, Mannheim, Germany) according to the manufacturers protocol.

[6] = test system: interface cells; experiment: Effect of contrast medium on HAdV-5 transduction of interface cells; type: cell-based, human; conditions: contrast medium concentration of 50%, 4 hours; p<0.001
Experimental: Interface cells were seeded in 96-wells plates. After overnight incubation cells were infected with Ad.CMV.LacZ (concentrations of 0, 25, 100, and 200 pfu/cell) in IMDM/20% FCS, 50 μl per well. Fifty μl Iotrolan (Isovist) in 0.9% NaCl was added in concentrations of 0, 25, 50, and 100%. (When diluted in the culture medium these concentrations decreased to 0, 12.5, 25, and 50%.) Four hours after infection, the cells were washed twice with IMDM and incubated for the rest of the day in IMDM/10% FCS at 37° C. and 5% CO2. The Ad.CMV.LacZ transduced cells were cultured for three days after removal of the vector and contrast medium. Subsequently, the cells were fixed and stained for β-galactasidase activity. The transduction rate was assessed as described above.

| SMILES | killing of interface cells ([1]; 200 virus pfu/cell and CB1954 50 μM, cells from two revision surgery patients) [%] | dose dependence of killing ([1]; CTL102 0-200 IU/cell, CB1954 0-50 μM, cells from both patients) | cell killing by NTR/CB1954 [2] | tolerability in man [3] | nausea [4] [WHO grade] | effect on viability of interface cells [5] | transduction of interface cells by Ad.CMV.LacZ [6] |
| --- | --- | --- | --- | --- | --- | --- | --- |
| NC(=O)c1cc(N2CC2)c([N+](=O)[O-])cc1[N+](=O)[O-] [CB1954, 5-(aziridin-1-yl)-2,4-dinitrobenzamide] | 90 | virus and CB1954-dose dependent killing | cells are not killed | well-tolerated in man | 1 |  |  |
| CN(C(=O)CC(=O)N(C)c1c(I)c(C(=O)NC(CO)C(O)CO)c(I)c(C(=O)NC(CO)C(O)CO)c1I)c1c(I)c(C(=O)NC(CO)C(O)CO)c(I)c(C(=O)NC(CO)C(O)CO)c1I (stereo not shown) [iotrolan] |  |  |  |  |  | does not affect the viability of the cells at any concentration | none of the cells were transduced |
